Results: patent publication US9939427B2, “Method for evaluating the scent performance of perfumes or perfume mixtures” (Symrise AG, priority 2013, dated 2018)
“Also recorded” adds a separate entry of the source. Each block holds one molecule with its values, some of them ahead of it.

Assays:
Assay type in all cases: cell-based
[1] = target: T1, OR4K2 (Homo sapiens, UniProt Q8NGD2); assay: Ca-imaging of OR4K2-transfected HEK293 cells; parameters: key to OR4K2 responded to odorant: ▪: 18 olfactory receptors responded to 32 odorants in related with specific anosmia; conditions: HEK293 cells, individual odorant 200 μM, significant response p<0.05
T1 construct: specific primers, which amplify the complete open reading frame; expressed in transfected cells; host or cells: HEK293
T1 sequence (Q8NGD2 1-314): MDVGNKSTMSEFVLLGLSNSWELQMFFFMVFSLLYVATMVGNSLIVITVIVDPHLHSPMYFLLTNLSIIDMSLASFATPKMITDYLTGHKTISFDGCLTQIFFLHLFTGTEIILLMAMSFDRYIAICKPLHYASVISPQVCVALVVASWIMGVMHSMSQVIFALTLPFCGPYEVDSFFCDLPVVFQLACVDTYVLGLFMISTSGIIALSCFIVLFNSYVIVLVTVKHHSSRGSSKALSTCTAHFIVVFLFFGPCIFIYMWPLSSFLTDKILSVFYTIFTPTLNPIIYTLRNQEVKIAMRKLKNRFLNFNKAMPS
Description: (§1) HEK293 cells were cultivated in Petri dishes (Ø35 mm) as previously described (Benbernou et al. 2007). We grow up HEK293 cells in culture medium containing standard DMEM with 10% heat-inactivated fetal bovine serum, 2 mM L-glutamine, 100 units/ml penicillin, and 100 units/ml streptomycin in a humidified atmosphere (37° C., 5% CO2). After 2-3 days, the transfection process was carried out, whereby the cell culture was 70-80% confluent. The calciumphosphate method was applied to transfect DNA plasmid transiently in HEK293 cells in case of Ca-imaging method.
(§2) Calcium cations and phosphate anions created crystal precipitations coupled with DNA which could invade into the cells through endocytosis. Cells were transiently transfected with plasmid DNA which consists of pCI expression vector and PCR-amplified full-length cDNA of olfactory receptors candidates, and also Gα15, RTP1, Myr-Ric8A, HSC70, and m-Cherry as cofactors. The precipitation could be created after 15-20 min, with dropping the transfection solution on HEK293 cells. Before measuring by Ca-imaging cells were incubated 48-60 hours at 370 C, 5% CO2. Cationic liposome-mediated transfection method was applied to transfect DNA plasmid transiently in HANA3A cells in case of CRE-Luciferase and CRE-SEAP assays.
(§3) Calcium imaging of the transfected HEK293 cells was done by using chambers determinate an inverted microscope (Olympus; IX70) using a 10× objective (CPIanFL N Olympus). Fluorescence emission was determined every 4 s by using a CCD camera (Charge Coupled Device, C9100 Hamamatsu). The capillary tube which was responsible to supply odorants was generated closely above the cells. The columns filled with odorants, DMSO and ATP. Odorants were manually monitored to drop each 4-5 s to transfected cells. Solutions with drop wise form spread on HEK293 cells in 35 mm dishes.
(§4) In experiments, Fura-2 Acetoxymethylester (Fura-2/AM) was applied. The non-polar Fura2/AM is fluorescent but not yet calcium-sensitive. Once diffuses into cell plasma, Fura-2/AM is hydrolyzed to Fura-2 which is calcium-sensitive and functions as Ca2+ chelator. Regardless of the presence of calcium, Fura-2 emits at the wavelength of 510 nm. Once Fura-2 binds to free intracellular Ca2+ in cell plasma, its ratio of excitation at wavelengths of 340 nm and 380 nm is changed and correlated to the amount of intracellular Ca2+. According to this feature, the analysis of 340/380 nm excitation ratio for Fura-2 allows to quantify intracellular calcium levels.
(§5) In preparation for Ca-imaging measurements, transfected HEK293 cells were added 3 it Fura2/AM (3 μM) and incubated 30-45 min at 370 C, 5% CO2. After this step, experiments were carried out in a dark condition (Fura-2 is light-sensitive). After the incubation, medium of cell culture was replaced with 2 ml Ringer's solution.
(§6) Odorants were freshly prepared with DMSO as 1 M stocks solutions. Six mixtures (200 μM each chemical) were applied to cells sequentially (20 s each mixture/30 s Ringer). Those ORs tested with single odorants that had generated a response to odorant mixture group previously. Odorants were prepared in 100-200 μM concentration.
(§7) Ringer's solution was used for washing cells between measuring by two different odorants. Positive response was determined by the timing of the response, the strength of the response (more than twofold higher than the noise amplitude of the baseline), and the shape of the response curve (sharp rise in curve with gradual recovery). […]

[2] = target: T2, OR10A6 (Homo sapiens, UniProt Q8NH74); assay: Ca-imaging of OR10A6-transfected HEK293 cells; parameters: key to OR10A6 responded to odorant: ▪: 18 olfactory receptors responded to 32 odorants in related with specific anosmia; conditions: for OR10A6 responded to odorant: HEK293 cells, individual odorant 200 μM, significant response p<0.05
T2 construct: specific primers, which amplify the complete open reading frame; expressed in transfected cells; host or cells: HEK293
T2 sequence (Q8NH74 1-314): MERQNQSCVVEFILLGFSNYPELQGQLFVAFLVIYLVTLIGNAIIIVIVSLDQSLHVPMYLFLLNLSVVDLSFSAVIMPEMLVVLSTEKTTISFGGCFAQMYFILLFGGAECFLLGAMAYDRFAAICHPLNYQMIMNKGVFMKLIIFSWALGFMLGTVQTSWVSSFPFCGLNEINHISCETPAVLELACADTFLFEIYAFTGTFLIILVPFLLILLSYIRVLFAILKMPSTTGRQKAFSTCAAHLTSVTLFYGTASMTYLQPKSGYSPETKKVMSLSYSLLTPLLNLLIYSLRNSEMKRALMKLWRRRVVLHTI
Description: as §1, §2, §3, §4, §5, §6, §7

[3] = target: T3, OR8B4 (Homo sapiens, UniProt Q96RC9); assay: Ca-imaging of OR8B4-transfected HEK293 cells; conditions: Ca-imaging, single odorants 200 μM
T3 construct: specific primers, which amplify the complete open reading frame; expressed in transfected cells; host or cells: HEK293
T3 sequence (Q96RC9 1-309): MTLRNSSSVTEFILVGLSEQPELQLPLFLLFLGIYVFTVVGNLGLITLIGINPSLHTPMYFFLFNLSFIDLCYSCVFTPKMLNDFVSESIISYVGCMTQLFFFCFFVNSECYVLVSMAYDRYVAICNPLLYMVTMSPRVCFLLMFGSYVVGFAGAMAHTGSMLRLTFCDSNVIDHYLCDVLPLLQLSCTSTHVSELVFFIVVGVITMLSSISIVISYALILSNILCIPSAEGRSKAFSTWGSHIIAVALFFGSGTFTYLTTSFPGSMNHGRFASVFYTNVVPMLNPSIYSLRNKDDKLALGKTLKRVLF
Description: as §1, §2, §3, §4, §5, §6
(§8) Ringer's solution was used for washing cells between measuring by two different odorants. Positive response was determined by the timing of the response, the strength of the response (more than twofold higher than the noise amplitude of the baseline), and the shape of the response curve (sharp rise in curve with gradual recovery). The typical shape of response curves was established by observing responses to repeated stimulation with 200 μM of odorants. After testing with single odorants at 100 μM, stimulating odorants were often retested at 200 μM concentrations. To confirm the result of every receptor that produced a significant response curves, the experiment was repeated for twelve times. Finally, cells were exposed to ATP (0.25 mM) which could activate P2Y receptor channel and induce Ca2+ influx into cells. […]

[4] = test system: HEK293 cells transfected with all cofactors and pCI plasmids without ORs; assay: Ca-imaging of control HEK293 cells without OR; conditions: odorant 200 μM, three times of measuring (Table 4, FIG. 5)
Description: as §1, §2, §3, §4, §5, §6, §8

[5] = target: T4, OR8D2 (Homo sapiens, UniProt Q9GZM6); assay: Ca-imaging of OR8D2-transfected HEK293 cells; parameters: key to OR8D2 responded to odorant: ▪: 18 olfactory receptors responded to 32 odorants in related with specific anosmia; conditions: for Number of cell responses, Experiment (OR8D2): odorant 200 μM, approximately 2000 transfected cells in three times of measuring (Table 4, FIG. 5)
T4 construct: specific primers, which amplify the complete open reading frame; expressed in transfected cells; host or cells: HEK293
T4 sequence (Q9GZM6 1-311): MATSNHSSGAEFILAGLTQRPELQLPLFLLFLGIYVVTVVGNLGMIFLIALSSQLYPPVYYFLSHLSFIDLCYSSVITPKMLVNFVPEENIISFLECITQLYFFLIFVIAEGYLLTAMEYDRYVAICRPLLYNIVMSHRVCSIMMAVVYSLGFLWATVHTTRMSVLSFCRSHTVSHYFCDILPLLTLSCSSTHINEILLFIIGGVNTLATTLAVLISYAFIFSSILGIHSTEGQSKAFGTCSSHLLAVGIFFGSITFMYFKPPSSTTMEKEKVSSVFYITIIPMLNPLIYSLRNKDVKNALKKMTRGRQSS
Description: as §1, §2, §3, §4, §5, §6, §8

[6] = target: T5, OR2L8 (Homo sapiens, UniProt Q8NGY9); assay: Ca-imaging of OR2L8-transfected HEK293 cells; parameters: key to OR2L8 responded to odorant: ▪: 18 olfactory receptors responded to 32 odorants in related with specific anosmia
T5 construct: specific primers, which amplify the complete open reading frame; expressed in transfected cells; host or cells: HEK293
T5 sequence (Q8NGY9 1-312): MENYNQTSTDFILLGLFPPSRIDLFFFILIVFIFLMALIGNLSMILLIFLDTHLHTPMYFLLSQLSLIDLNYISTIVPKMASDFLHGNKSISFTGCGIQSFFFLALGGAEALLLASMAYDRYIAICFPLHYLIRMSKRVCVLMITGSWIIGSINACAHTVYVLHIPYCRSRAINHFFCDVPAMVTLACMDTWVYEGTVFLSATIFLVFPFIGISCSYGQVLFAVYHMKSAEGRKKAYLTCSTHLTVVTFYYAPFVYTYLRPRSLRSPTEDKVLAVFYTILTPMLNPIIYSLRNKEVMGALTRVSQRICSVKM
Description: as §1, §2, §3, §4, §5, §6, §8

[7] = target: T6, OR1B1 (Homo sapiens, UniProt Q8NGR6); assay: Ca-imaging of OR1B1-transfected HEK293 cells; parameters: key to OR1B1 responded to odorant: ▪: 18 olfactory receptors responded to 32 odorants in related with specific anosmia; conditions: Ca-imaging
T6 construct: specific primers, which amplify the complete open reading frame; expressed in transfected cells; host or cells: HEK293
T6 sequence (Q8NGR6 1-317): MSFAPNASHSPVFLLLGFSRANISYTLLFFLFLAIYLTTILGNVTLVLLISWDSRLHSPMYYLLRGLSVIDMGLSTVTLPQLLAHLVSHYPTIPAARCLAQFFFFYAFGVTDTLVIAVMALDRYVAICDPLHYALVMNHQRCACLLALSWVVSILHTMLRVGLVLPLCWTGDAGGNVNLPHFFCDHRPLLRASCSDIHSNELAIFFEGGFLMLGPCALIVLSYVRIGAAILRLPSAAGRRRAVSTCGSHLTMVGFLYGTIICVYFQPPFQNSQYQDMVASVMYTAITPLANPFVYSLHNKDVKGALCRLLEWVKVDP
Description: as §1, §2, §3, §4, §5, §6, §8

[8] = Ca-imaging, HEK293 cells, individual odorant 200 μM, significant response p<0.05
[9] = Ca-imaging, single odorants 200 μM

Structure (SMILES): O=Cc1ccccc1 [Banzaldehyde, Benzaldehyde]
OR4K2 responded to odorant [1]: ▪

Structure (SMILES): CCCCCCCCO [Octanol]
Number of cell responses, Control [4]: 0
Number of cell responses, Experiment (OR8D2) [5]: 9

Structure (SMILES): CCCC(O)CCC1C(C)CCCC1(C)C (stereo not drawn) [Timbrol, Timberol]
Number of cell responses, Control [4]: 1
OR2L8 responded to odorant [6, 8]: ▪
Response of OR2L8 to odorant, in words [6, 9]: Ca2+ concentration increased
Number of cell responses, Experiment (OR2L8) ([6]; odorant 200 μM, approximately 2000 transfected cells in three times of measuring (Table 4, FIG. 5)): 10

More lines, main results first:

OR10A6 responded to odorant [2]: ▪
Structure (SMILES): OC/C=C/c1ccccc1 [Cinamyl alcohol, Cinamylalcohol]

Response of OR8B4 to odorant, in words [3]: activated
OR10A6 responded to odorant [2]: ▪
Response of OR10A6 to odorant, in words ([2]; single odorants 200 μM): detected
OR8D2 responded to odorant [5, 8]: ▪
Number of cell responses, Experiment (OR8D2) [5]: 21
Structure (SMILES): CC(C)(CO)Cc1ccccc1 [Muguet alcohol, Muguetalcohol]
Number of cell responses, Control [4]: 0
Response of OR8D2 to odorant, in words [5, 9]: significantly activated; also recorded: detected

OR1B1 responded to odorant ([7]; HEK293 cells, individual odorant 200 μM, significant response p<0.05): ▪
Response of OR1B1 to odorant, in words ([7]; single odorants 200 μM): significantly (P<0.05) activated
Structure (SMILES): Cc1ccc2c(c1)OCC(=O)CO2 [calone, Calone]
Number of cell responses, Control [4]: 0
